Measurements taken from US9937220B2, “Anti-diabetic nutraceutical composition from palm leaf extract” (priority 2009, dated 2018).

Tested on: STZ-induced diabetic rats
Assay: Body weight of STZ-induced diabetic rats
Format: in vivo, rat
Conditions: glibenclamide treated group (30 mg/kg)
Method: Adult normal and streptozotocin-induced diabetic male Sprague Dawley rats were randomly divided into groups. Palm leaf aqueous and alcoholic extracts (PLE) were fed to normal and STZ-induced diabetic rats at 50-200 mg/kg for 8 weeks. Blood sugar levels from fasting rats were monitored weekly. Untreated rats were used as negative control and glibenclamide (30 mg/kg) treated rats used as positive control.

COc1ccc(Cl)cc1C(=O)NCCc1ccc(S(=O)(=O)NC(=O)NC2CCCCC2)cc1 [glibenclamide]
changes in body weight: Significant changes in body weight
